From ChEMBL document CHEMBL1201862, “PubChem BioAssay data set” (2004)
Several values for one entry are separate records, joined by “and”; a condition that tells them apart may be missing. Equal values may be shown once.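 Where inhibition never reached the appropriate level, the endpoint shown equals the highest concentration tested. Otherwise, values were interpolated linearly from a five-concentration, 48-hour dose response in 96-well plates. Abbreviation: GI50, concentration required for 50% inhibition of growth.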 Activity calls are given as the source filed them. No stated cut-off is given here; in the data, active = GI50 up to about 1.1 µM and inactive = higher.

Tests used:
Experiment in all cases: NCI-60 cell line screen, 48 h
MOLT-4 = test system: MOLT-4
SW-620 = test system: SW-620
Hs-578T = test system: Hs-578T
PC-3 = test system: PC-3
HCT-116 = test system: HCT-116
SF-268 = test system: SF-268
SK-MEL-28 = test system: SK-MEL-28
Malme-3M = test system: Malme-3M
BT-549 = test system: BT-549
MCF7 = test system: MCF7
K562 = test system: K562
SNB-75 = test system: SNB-75
T47D = test system: T47D
RXF 393 = test system: RXF 393
A549 = test system: A549
KM12 = test system: KM12
HL-60 = test system: HL-60
NCI-H522 = test system: NCI-H522
HOP-62 = test system: HOP-62
UACC-257 = test system: UACC-257
RPMI-8226 = test system: RPMI-8226
NCI-H460 = test system: NCI-H460
IGROV-1 = test system: IGROV-1
COLO 205 = test system: COLO 205
EKVX = test system: EKVX
SN12C = test system: SN12C
HT-29 = test system: HT-29
MDA-MB-231 = test system: MDA-MB-231
SK-MEL-5 = test system: SK-MEL-5
A498 = test system: A498
M14 = test system: M14
DU-145 = test system: DU-145
NCI/ADR-RES = test system: NCI/ADR-RES
SK-OV-3 = test system: SK-OV-3
SK-MEL-2 = test system: SK-MEL-2
OVCAR-5 = test system: OVCAR-5
SF-295 = test system: SF-295
NCI-H226 = test system: NCI-H226
OVCAR-8 = test system: OVCAR-8
SR = test system: SR
U-251 = test system: U-251
ACHN = test system: ACHN
SNB-19 = test system: SNB-19
786-0 = test system: 786-0
UACC-62 = test system: UACC-62
MDA-MB-435 = test system: MDA-MB-435
HCT-15 = test system: HCT-15
OVCAR-4 = test system: OVCAR-4
CAKI-1 = test system: CAKI-1
HOP-92 = test system: HOP-92
OVCAR-3 = test system: OVCAR-3
NCI-H23 = test system: NCI-H23
SF-539 = test system: SF-539
TK-10 = test system: TK-10
UO-31 = test system: UO-31
LOX IMVI = test system: LOX IMVI
HCC 2998 = test system: HCC 2998
CCRF-CEM = test system: CCRF-CEM
MDA-N = test system: MDA-N

Measured: GI50

S=C(Nc1cc(Cl)c(Cl)cc1Cl)SCc1ccccc1
18.1 µM: HCT-15
active: SR 0.0129 µM
inactive: MOLT-4 22.8 µM | SW-620 35.2 µM | Hs-578T 34.3 µM | PC-3 32 µM | HCT-116 32.3 µM | SF-268 38.1 µM | SK-MEL-28 28.6 µM | Malme-3M 28.2 µM | BT-549 26.2 µM | MCF7 38.5 µM | K562 18.5 µM | SNB-75 39.3 µM | T47D 32.3 µM | RXF 393 54.8 µM | A549 30 µM | KM12 19.8 µM | HL-60 18.8 µM | NCI-H522 24.3 µM | HOP-62 26 µM | UACC-257 19 µM | RPMI-8226 21 µM | NCI-H460 45.8 µM | IGROV-1 33.9 µM | COLO 205 34.9 µM | EKVX 40.7 µM | SN12C > 100 µM | HT-29 20.8 µM | MDA-MB-231 13.1 µM | SK-MEL-5 20.7 µM | A498 32.9 µM | M14 34.9 µM | DU-145 39.4 µM | NCI/ADR-RES 24.9 µM | SK-OV-3 56 µM | SK-MEL-2 > 100 µM | OVCAR-5 22.8 µM | SF-295 19.4 µM | NCI-H226 18.5 µM | OVCAR-8 20.1 µM | U-251 22.2 µM | ACHN 20.5 µM | SNB-19 28.6 µM | 786-0 38.2 µM | UACC-62 66.5 µM | MDA-MB-435 19.8 µM | OVCAR-4 22.2 µM | CAKI-1 22.6 µM | HOP-92 21.3 µM | OVCAR-3 21.8 µM | NCI-H23 20.1 µM | SF-539 23.1 µM | TK-10 24.7 µM | UO-31 40.6 µM

CCOC(=O)/C=C\[C@H]1OC(C)(C)O[C@H]1[C@H](O)[C@H]1COC(C)(C)O1
17 µM: HCT-15
inactive: MOLT-4 19.2 µM | SW-620 19.6 µM | LOX IMVI 20 µM | Hs-578T 26.8 µM | PC-3 20.7 µM | HCT-116 19.7 µM | SF-268 25.4 µM | SK-MEL-28 17.7 µM | HCC 2998 11.3 µM | Malme-3M 18.9 µM | BT-549 22 µM | MCF7 20.8 µM | K562 10.4 µM | SNB-75 2.57 µM | T47D 20.5 µM | RXF 393 20 µM | A549 > 100 µM | KM12 77.3 µM | HL-60 22.8 µM | NCI-H522 13.8 µM | HOP-62 66.4 µM | UACC-257 22.6 µM | RPMI-8226 19.8 µM | NCI-H460 27 µM | IGROV-1 19.5 µM | COLO 205 15.8 µM | EKVX 21.1 µM | SN12C 17.4 µM | CCRF-CEM 10.5 µM | HT-29 20.7 µM | MDA-MB-231 17.6 µM | SK-MEL-5 18.2 µM | A498 16.6 µM | M14 17.8 µM | DU-145 > 100 µM | NCI/ADR-RES 32.5 µM | SK-OV-3 > 100 µM | SK-MEL-2 22.3 µM | OVCAR-5 17.1 µM | SF-295 > 100 µM | NCI-H226 > 100 µM | OVCAR-8 29.8 µM | SR 17.1 µM | U-251 17.7 µM | ACHN 16.3 µM | SNB-19 > 100 µM | 786-0 19.4 µM | UACC-62 23.7 µM | MDA-MB-435 17.3 µM | OVCAR-4 19.3 µM | CAKI-1 2.57 µM | HOP-92 13.2 µM | OVCAR-3 17.4 µM | NCI-H23 21.7 µM | SF-539 17.7 µM | TK-10 16.1 µM | UO-31 18.4 µM

CCCCCC1=C2C(c3ccc(OC)cc3)=C(N)C(c3ccc(OC)cc3)=C3NC(=O)C(C=C1)C32 (stereo not drawn)
> 100 µM: HCT-15
inactive: MOLT-4 56.4 µM | SW-620 49.2 µM | LOX IMVI 33.9 µM | PC-3 27.7 µM | HCT-116 57.5 µM | SF-268 11.8 µM | SK-MEL-28 > 100 µM | HCC 2998 > 100 µM | Malme-3M 19.5 µM | BT-549 96.4 µM | MCF7 84.3 µM | K562 42.1 µM | SNB-75 32.8 µM | T47D 70.1 µM | RXF 393 18.9 µM | A549 29.7 µM | KM12 59.6 µM | HL-60 > 100 µM | NCI-H522 22.4 µM | HOP-62 21.8 µM | UACC-257 > 100 µM | RPMI-8226 33 µM | NCI-H460 28.1 µM | IGROV-1 28.1 µM | COLO 205 32.1 µM | EKVX 92.3 µM | SN12C 74.8 µM | CCRF-CEM 32.6 µM | HT-29 > 100 µM | MDA-MB-231 > 100 µM | SK-MEL-5 > 100 µM | A498 43 µM | M14 59.7 µM | DU-145 57.5 µM | NCI/ADR-RES > 100 µM | SK-OV-3 41.7 µM | SK-MEL-2 > 100 µM | OVCAR-5 > 100 µM | SF-295 36.3 µM | NCI-H226 21.9 µM | OVCAR-8 30.3 µM | U-251 98.2 µM | ACHN > 100 µM | SNB-19 25.4 µM | 786-0 25 µM | UACC-62 53.1 µM | MDA-MB-435 37.3 µM | OVCAR-4 23.2 µM | CAKI-1 36 µM | HOP-92 17.9 µM | OVCAR-3 57.1 µM | MDA-N 61.4 µM | NCI-H23 48.4 µM | TK-10 60.7 µM | UO-31 54.3 µM

Cc1ccccc1-n1c(=O)c2ncn(CCCl)c2n(-c2ccccc2C)c1=S
> 100 µM: HCT-15
inactive: MOLT-4 > 100 µM | SW-620 > 100 µM | LOX IMVI > 100 µM | PC-3 73.1 µM | HCT-116 > 100 µM | SF-268 > 100 µM | SK-MEL-28 > 100 µM | HCC 2998 > 100 µM | BT-549 > 100 µM | MCF7 > 100 µM | K562 > 100 µM | SNB-75 > 100 µM | T47D > 100 µM | RXF 393 > 100 µM | A549 > 100 µM | KM12 > 100 µM | HL-60 > 100 µM | NCI-H522 38.5 µM | HOP-62 > 100 µM | UACC-257 > 100 µM | RPMI-8226 > 100 µM | NCI-H460 > 100 µM | IGROV-1 > 100 µM | COLO 205 > 100 µM | EKVX > 100 µM | SN12C > 100 µM | CCRF-CEM > 100 µM | HT-29 > 100 µM | MDA-MB-231 > 100 µM | SK-MEL-5 > 100 µM | A498 > 100 µM | M14 > 100 µM | DU-145 > 100 µM | NCI/ADR-RES > 100 µM | SK-OV-3 > 100 µM | SK-MEL-2 > 100 µM | OVCAR-5 > 100 µM | SF-295 > 100 µM | NCI-H226 > 100 µM | OVCAR-8 > 100 µM | SR > 100 µM | U-251 > 100 µM | ACHN > 100 µM | 786-0 > 100 µM | UACC-62 > 100 µM | MDA-MB-435 > 100 µM | OVCAR-4 > 100 µM | CAKI-1 > 100 µM | HOP-92 > 100 µM | OVCAR-3 > 100 µM | NCI-H23 > 100 µM | SF-539 > 100 µM | TK-10 > 100 µM | UO-31 > 100 µM

COc1cccc(-c2cc(O)c3cc(N(C)C)ccc3n2)c1
inactive: T47D > 10 µM | OVCAR-4 4.95 µM and 7.4 µM
active: BT-549 0.681 µM | RXF 393 1.76 nM and 18.8 nM | HOP-62 25.6 nM and 16.7 nM | UACC-257 10.2 nM and 5.13 nM | RPMI-8226 30.2 nM and 37.2 nM | SN12C 44.9 nM and 24.3 nM | HT-29 22.9 nM and 14 nM | MDA-MB-231 42.7 nM and 25.8 nM | A498 < 0.01 µM | OVCAR-5 48.1 nM and 41.5 nM | NCI-H226 37.6 nM and 23.7 nM | OVCAR-8 32.2 nM and 18.2 nM | SNB-19 30.4 nM and 28.2 nM | MDA-MB-435 2.68 nM and 1.39 nM | MDA-N 1.24 nM and 2.27 nM | NCI-H23 31.4 nM and 37.4 nM
0.00925 µM and 0.0116 µM: HCT-15
